Where two headings read alike, the source gives them in different places.
Key:
bovine brain tubulin = experiment: Inhibition of GTP-induced tubulin assembly (turbidimetry at 350 nm); type: biochemical; settings: after 20 min at 30° C., 10 μM bovine brain tubulin, 0.8 M monosodium glutamate
Protocol: Bovine brain tubulin was isolated to electrophoretic homogeneity from fresh brains via methodology described by Hamel and Lin, Biochemistry 23: 4173-84 (1984). Tubulin (final concentration 10 μM; 1 mg/mL) was preincubated with test agents dissolved in DMSO (4% v/v final concentration) and monosodium glutamate (0.8 M final concentration, pH 6.6) for 15 minutes at 30° C. The reaction mixture was cooled to 0° C., and GTP (0.4 mM final concentration) was added. Reaction mixtures were transferred to cuvettes held at 2.5° C. in a Beckmann DU 7400 multichannel, temperature-controlled (Peltier unit) spectrophotometer, reading absorbance (turbidity) at 350 nm in each cuvette every 15 seconds. Baselines were established and temperature was quickly raised to 30° C. (in approximately 1 minute). After 20 minutes, the temperature was returned to 2.5° C. The turbidity value after 20 minutes at 30° C. for GTP alone was assigned as 100% assembly, and for DMSO alone as 0% assembly. The IC50 was calculated by linear regression of the percent assembly values at the same time point obtained with 0.625, 1.25, 2.5, 5, 10 and 20 μM test agent. In experiments to test for disassembly of preformed tubulin polymer, the test agent was added after 7 minutes of GTP-induced assembly.

[1] = system: T98G human glioblastoma cell line; experiment: Antiproliferative assay (MTS), GI50 in T98G cells; type: cell-based
Excerpt: General methods are known for determining the effect of compounds on proliferation of cells. See, e.g., Zhu et al., J. Med. Chem., 2006, 49, 2063-2076. Cells can be selected by one of skill in the art and can be maintained as exponentially growing cultures in a suitable medium (e.g., RPMI 1640 medium) with adjuvents, including FBS, penicillin, and glutamine, provided at levels known to those skilled in this field. For human cancer cells, e.g., human glioblastoma cell line T98G, the cells can be trypsinized and washed prior to formation of a cell suspension in appropriate buffer and plating of the cell suspension. Typical microtiter plate amounts can be 500-2000 cells/well. The cells can be allowed to attach and grow for a defined time period (e.g., 36 hours, 72 hours, 96 hours, or other defined period) before treatment with either vehicle (e.g., dimethylsulfoxide) or test agent (e.g., compound of the invention) followed by an additional defined time period (e.g., 36 hrs, 72 hrs, 96 hrs, and the like). At the end of the additional defined time period, viability of the cells can be determined by any of a variety of methods known in the art, including assays employing MTS (3-(4,5-dimethylthiazol-2-yl)-5-(3-carboxymethoxyphenyl)-2-(4-sulfophenyl)-2H-tetrazolium), as described by -Cory et al., Cancer Commun., 1991, 3, 207-212. […] Replicates are typically assayed to allow determination of appropriate statistical properties as known in the art.
Compounds of the invention with structures of Formulae Xa, XVb, and XVa were assayed for inhibition of growth of the T98G human glioblastoma cell line (Table II).
Human glioblastoma T98G cells (American Type Culture Collection, Manassas, Va.) were maintained as exponentially growing cultures in an RPMI 1640 medium with 10% FBS, 1% penicillin and 1% glutamine. The cells were seeded into 96-well plates and allowed to attach and grow for 48 hours. One plate of cells was used for a time zero cell number determination (N=16), and cells in other plates were treated for 72 hours or 96 hours with either DMSO (1% v/v; N=8 for each plate) or a range of concentrations, in quadruplicate, of test agents. Cell number was determined spectrophotometrically at 490 nm minus absorbance at 630 nm after exposure to 3-(4,5-dimethylthiazol-2-yl)-5-(3-carboxymethoxyphenyl)-2-(4-sulfophenyl)-2H-tetrazolium (MTS) and N-methylphenazine methylsulfate. The fifty percent growth inhibitory concentrations (GI50) of test agents were calculated from the spectrophotometrically determined growth of the control cells over the 72- or 96-hour period.

[2] = system: bovine brain tubulin (vinca domain); experiment: Inhibition of [3H]vinblastine binding to tubulin (centrifugal gel filtration); settings: 10 μM radiotracer, 10 μM tubulin; for % Inhibition of [3H]vinblastine binding by 5 μM test agent: 30 min room temperature; for IC50: test agent 0.5-100 μM, Hill fit
Protocol: (§1) The new compounds were tested for their abilities to bind at the vinca domain and at the related peptide/depsipeptide site on tubulin using a modification of a centrifugal gel filtration method described by Bai et al., Mol. Pharmacol. 7: 965-76 (1995). In the initial screens, each 0.32 mL reaction mixture contained 5 μM test agent and 10 μM [^3H]vinblastine (specific activity 8.50 Ci/mmol; GE Healthcare Bio-Sciences, Picataway, N.J.) or 10 μM [^3H]dolastatin 10 (specific activity 1.96 Ci/mmol; obtained from the Drug Synthesis and Chemistry Branch of the National Cancer Institute) predissolved in DMSO (final concentration 1% v/v) and 10 μM bovine brain tubulin, all in 0.1 M 2-(4-morpholino)ethanesulfonic acid (Mes), pH 6.9, containing 0.5 mM MgCl2. The mixture was incubated for 30 min at room temperature. Two 0.15 mL aliquots of the reaction mixture were applied to duplicate 2 mL beds of pre-swollen (in Mes, pH 6.9, containing 0.5 mM MgCl2) Sephadex G-50 (superfine) contained in Handee columns (Pierce Biotechnology, Rockford, Ill.). The columns were centrifuged at 800×g for 4 minutes and the protein concentration in the effluent was determined, using the bicinchoninic acid assay. The amount of radiolabeled ligand bound to tubulin was determined using scintillation spectrometry. Each value represents the mean ±SD of four determinations. […] Inhibition was calculated as the percent difference relative to that of the control incubation with DMSO (i.e., without test agent—assigned as 0% inhibition). […] GraphPad Prism was used to fit the resulting data to the Hill equation to determine the IC50 values.

[3] = system: HeLa human cervical carcinoma cells; experiment: High-content analysis of mitotic arrest in HeLa cells; type: cell-based; settings: for Microtubule Density MDEC (minimum detectable effective concentration) / Mitotic Index MDEC (percentage of phosphohistone H3-positive cells) / Nuclear Condensation MDEC (minimum detectable effective concentration) / EC50: 20 hours treatment, average of four experiments ± SD; for EC50: Homo sapiens, read-out: Cell Density EC50; for activity in high-content analysis of mitotic arrest (in words): all endpoints measured
Protocol: The effects of tubulysin analogs on mitotic arrest and cellular microtubules were studied. HeLa human cervical carcinoma cells (10,000 per well) were plated in collagen-1 coated 384-well microplates and were treated with vehicle (DMSO) or ten two-fold concentration gradients of test agents within 4-6 hours of seeding. Cells were incubated for 20 hours at 37° C., fixed with formaldehyde, and labeled with 10 μg/mL Hoechst 33342 in Hank's balanced salt solution (HBSS). Cells were permeabilized with 0.5% (w/w) Triton X-100 for 5 min at room temperature and incubated with a primary antibody cocktail consisting of an HBSS solution containing rabbit polyclonal anti-phosphohistone H3 (Ser10, 1:500, Upstate), and mouse monoclonal anti-α-tubulin (1:3000, Sigma), followed by a mixture of FITC-labeled donkey anti-mouse IgG (1:500) and Cy3-labeled donkey anti-rabbit IgG (1:500). Cells were rinsed once with HBSS and stored at 4° C. in HBSS until analysis.
Microplates were analyzed with an ArrayScanII instrument (Cellomics, Pittsburgh, Pa.) using the Target Activation Bioapplication (Cellomics, Inc.). Within the application, 1,000 individual cells in each well were imaged at three different wavelengths, using an Omega XF93 filter set at excitation/emission wavelengths of 350/461 nm (Hoechst), 494/519 nm (FITC), and 556/573 nm (Cy3). The following parameters were used for data analysis: average nuclear intensity, nuclei per field, average nuclear FITC intensity, and average nuclear Cy3 intensity. A nuclear mask was generated from Hoechst 33342-stained nuclei. Microtubule density and histone H3 phosphorylation were measured in the FITC and Cy3 channel, respectively. Microtubule density was defined as the average green (FITC) pixel intensity in an area defined by the nuclear mask. For determination of mitotic index and nuclear condensation, thresholds for Hoechst 33342 and phosphohistone-H3 intensities were defined as the average Hoechst 33342 or Cy3 intensity plus one standard deviation from twenty-eight vehicle-treated wells placed in the center of the microplate.
Cells were classified as positive if their average Hoechst 33342 or Cy3 intensity exceeded this threshold. To illustrate visually the effects of test agents on cellular microtubules and mitotic arrest, the identical 384-well plates then were used to acquire higher resolution images of selected wells.
Asynchronously growing HeLa cells were treated for 20 hours with each compound in collagen-coated 384 well microplates, fixed, and incubated with primary antibodies for tubulin and the mitotic marker protein phosphohistone H3, followed by FITC and Cy3-conjugated secondary antibodies, respectively. Cells were detected by nuclear counterstaining with Hoechst 33342, which also provided information about chromatin condensation and cell density as markers of cell death.

[4] = system: bovine brain tubulin (peptide/depsipeptide site); experiment: Inhibition of [3H]dolastatin 10 binding to tubulin (centrifugal gel filtration); settings: 10 μM radiotracer, 10 μM tubulin; for % Inhibition of [3H]dolastatin 10 binding by 5 μM test agent: 30 min room temperature
Protocol: as §1

[5] = system: bovine brain tubulin (vinca domain); experiment: Inhibition of [3H]vinblastine binding to tubulin (centrifugal gel filtration); settings: 50 μM test agent
[6] = Homo sapiens, T98G, 72 h (value in parentheses), ±SD, n = 4, Table IV, read-out: GI50 at (72 h) in T98 glioblastoma cells
[7] = Homo sapiens, T98G, 96 h, ±SD, n = 4, Table IV, read-out: GI50 at 96 h in T98 glioblastoma cells

GI50 [1, 6]	GI50 [1, 7]	GI50 ([1]; Homo sapiens, T98G cells, 72 h exposure, Table II, read-out: GI50 in T98G cell, 72 h)	GI50 ([1]; Homo sapiens, T98G cells, 96 h exposure, Table II, read-out: GI50 in T98G cell, 96 h)	GI50 ([1]; Homo sapiens, T98G cells, after 72 hrs exposure, read-out: GI50)	EC50 [3]	% Inhibition of [3H]dolastatin 10 binding by 5 μM test agent [4]	IC50 ([4]; test agent 0.5-100 μM, Hill fit)	% Inhibition of [3H]vinblastine binding @50 μM [5]	Compound	IC50 (bovine brain tubulin)	GI50 ([1]; 72 h (value in parentheses), ±SD, n = 4, Table IV, read-out: GI50 at (72 h) in T98 glioblastoma cells)	GI50 ([1]; 96 h, ±SD, n = 4, Table IV, read-out: GI50 at 96 h in T98 glioblastoma cells)	% Inhibition of [3H]vinblastine binding by 5 μM test agent [2]	IC50 [2]	Microtubule Density MDEC (minimum detectable effective concentration) [3]	Mitotic Index MDEC (percentage of phosphohistone H3-positive cells) [3]	Nuclear Condensation MDEC (minimum detectable effective concentration) [3]	activity in high-content analysis of mitotic arrest (in words) [3]
									CC[C@H](C)[C@@H]([C@@H](CC(=O)N1CCC[C@H]1[C@H](OC)[C@@H](C)C(=O)N[C@@H](Cc1ccccc1)c1nccs1)OC)N(C)C(=O)[C@@H](NC(=O)[C@H](C(C)C)N(C)C)C(C)C [dolastatin 10, reference compound]	1400 nM	0.1 nM	0.056 ± 0.025 nM	61 ± 1%	4600 ± 500 nM				
24 nM	12 ± 7 nM	24 ± 9 nM	12 ± 7 nM	~24 nM	11.3 ± 2.7 nM				CC(=O)O[C@H]1C(=O)[C@@]2(C)[C@H]([C@H](OC(=O)c3ccccc3)[C@]3(O)C[C@H](OC(=O)[C@H](O)[C@@H](NC(=O)c4ccccc4)c4ccccc4)C(C)=C1C3(C)C)[C@]1(OC(C)=O)CO[C@@H]1C[C@@H]2O [paclitaxel, reference compound]						7.0 ± 2.9 nM	4.2 ± 3.6 nM	10.2 ± 8.2 nM	nanomolar activity
8.6 nM	1 ± 0.6 nM					5 ± 6%			CC[C@]1(O)C[C@@H]2CN(CCc3c([nH]c4ccccc34)[C@@](C(=O)OC)(c3cc4c(cc3OC)N(C)[C@H]3[C@@](O)(C(=O)OC)[C@H](OC(C)=O)[C@]5(CC)C=CCN6CC[C@]43[C@@H]65)C2)C1 [vinblastine, reference compound]	1600 nM								
					19.7 ± 10.7 nM	21 ± 5%	29000 ± 5000 nM	(@50 μM: 98 ± 1%)	CC[C@]1(O)C[C@H]2CN(CCc3c([nH]c4ccccc34)[C@@](C(=O)OC)(c3cc4c(cc3OC)N(C=O)[C@H]3[C@@](O)(C(=O)OC)[C@H](OC(C)=O)[C@]5(CC)C=CCN6CC[C@]43[C@@H]65)C2)C1 [vincristine, reference compound]				65 ± 2%	4400 ± 700 nM	10.5 ± 10.1 nM	4.1 ± 1.9 nM	2.6 ± 2.0 nM	nanomolar activity

From patent publication US20100047841A1, “SYNTHESIS OF DESACETOXYTUBULYSIN H AND ANALOGS THEREOF” (University of Pittsburgh-of the Commonwealth System of …, priority 2007, published 2010)
